Source: ChEMBL document CHEMBL1143028, “Preparation of cyclic 2',3'-carbamate derivatives of erythromycin macrolide antibiotics” (Bioorg Med Chem, 2007)
Activity calls are given as the source filed them. The calls are words filed in the database; no cut-off is given here.

Key:
Escherichia coli = test: Antibacterial activity against Escherichia coli ATCC 25922 at […]; format: functional, organism-based
Staphylococcus aureus = test: Antibacterial activity against Staphylococcus aureus ATCC 25923 at […]; format: functional, organism-based

Row | SMILES | Activity (Escherichia coli) | Activity (Staphylococcus aureus)
1 | CC[C@H]1OC(=O)[C@H](C)[C@@H](O[C@H]2C[C@@](C)(OC)[C@@H](O)[C@H](C)O2)[C@H](C)[C@@H](O[C@@H]2O[C@H](C)C[C@H]3[C@H]2OC(=O)N3C)[C@](C)(OC)C[C@@H](C)C(=O)[C@H](C)[C@@H]2OC(=O)O[C@]12C | inactive | inactive
2 | C=CCOC(=O)O[C@H]1[C@H](C)O[C@@H](O[C@H]2[C@H](C)[C@@H](O[C@@H]3O[C@H](C)C[C@H]4[C@H]3OC(=O)N4C)[C@](C)(OC)C[C@@H](C)C(=O)[C@H](C)[C@@H]3OC(=O)O[C@]3(C)[C@@H](CC)OC(=O)[C@@H]2C)C[C@@]1(C)OC | inactive | inactive
3 | CC[C@H]1OC(=O)[C@H](C)[C@@H](O[C@H]2C[C@@](C)(OC)[C@@H](O)[C@H](C)O2)[C@H](C)[C@@H](O[C@@H]2O[C@H](C)C[C@H]3[C@H]2OC(=O)N3C)[C@](C)(OC)C[C@@H](C)C(=O)/C(C)=C/[C@]1(C)O | inactive | inactive
4 | CC[C@H]1OC(=O)[C@H](C)C(=O)[C@H](C)[C@@H](O[C@@H]2O[C@H](C)C[C@H]3[C@H]2OC(=O)N3C)[C@](C)(OC)C[C@@H](C)C(=O)[C@H](C)[C@@H]2N(c3ccc(N4CCOCC4)c(F)c3)C(=O)O[C@@]21C | inactive | inactive
5 | C=CCOC(=O)O[C@H]1[C@H](C)[C@@H](O[C@@H]2O[C@H](C)C[C@H]3[C@H]2OC(=O)N3C)[C@](C)(OC)C[C@@H](C)C(=O)[C@H](C)[C@@H]2OC(=O)O[C@]2(C)[C@@H](CC)OC(=O)[C@@H]1C | inactive | inactive
6 | CC[C@H]1OC(=O)[C@H](C)[C@@H](O)[C@H](C)[C@@H](O[C@@H]2O[C@H](C)C[C@H]3[C@H]2OC(=O)N3C)[C@](C)(OC)C[C@@H](C)C(=O)[C@H](C)[C@@H]2OC(=O)O[C@]12C | inactive | inactive
7 | CC[C@H]1OC(=O)[C@H](C)C(=O)[C@H](C)[C@@H](O[C@@H]2O[C@H](C)C[C@H]3[C@H]2OC(=O)N3C)[C@](C)(OC)C[C@@H](C)C(=O)[C@H](C)[C@@H]2OC(=O)O[C@]12C | inactive | inactive
